Patent US10226448B2, “3-(1H-pyrrolo[3,2-C]pyridin-2-yl)-1H-pyrazolo[3,4-B]pyridines and therapeutic uses thereof” (Samumed, LLC, priority 2015, dated 2019)
One block for each compound: values may come before it.

Legend:
Assay type in all cases: cell-based
[1] = tested on: LL29 cells (primary human fibroblasts derived from IPF patients), α-smooth muscle actin; test: Inhibition of the fibrotic process: αSMA staining in TGF-β1 treated primary human fibroblasts from IPF patients (LL29 cells); conditions: Fibroblast; for EC50: 96 h, LL29 cells, TGF-β1 20 ng/mL, 4 days, % αSMA positive cells; for inhibition at 10 µM: read-out: percent inhibition at 10 μM
Protocol: Representative compounds were screened using primary human fibroblasts (derived from IPF patients) treated with TGF-β1 to determine their ability to inhibit the fibrotic process.
LL29 cells are plated at 1,500 cells/well in 80 μL/well F12 medium supplemented with 1% Fetal Bovine Serum. […] Wells treated with TGF-β1 and containing DMSO were used as controls. […] Following incubation for 4 days, SYTOX green nucleic acid stain (Life Technologies [Thermo Fisher Scientific]) was added to the wells at a final concentration of 1 μM and incubated at room temperature for 30 min.

IL-6 in THP-1 cells = test: IL-6 inhibition in LPS-stimulated THP-1 human monocyte cells (HTRF); conditions: for EC50: IL-6 inhibition, LPS-stimulated THP-1 cells, HTRF, 10-point dose-response starting from 10 μM; for inhibition at 10 µM: THP-1, read-out: percentage in parentheses beside EC50 >10
Protocol: Compound Screening: THP-1 cells were cultured in basal media with 1% FBS for 24 hours before the start of the assay. […] THP-1 cells were plated at 5000 cells/well in the 384-well plates and incubated at 37° C. for 2 h. 500 ng/mL of LPS was added after 2 hours and cells were incubated for another 22 hours at 37° C. Plates were spun in a centrifuge for 1 minute at […] and a mixture of anti-IL6 XL665, and anti-IL6 Cryptate diluted in reconstitution buffer (Cisbio Inc.) was added to each well. Following incubation for 3 hrs at room temperature, Homogeneous Time-Resolved Fluorescence (HTRF) was measured using the Envision (Perkin Elmer) at 665 nm and […]. The ratio of fluorescence at 665 nm to 620 nm was used as a readout for IL6 quantification. All samples were processed in duplicate. Readings were normalized to DMSO treated cells and normalized activities were utilized for EC50 calculations using the dose-response log (inhibitor) vs. response variable slope (four parameters) nonlinear regression feature available in GraphPad Prism 5.0 (or Dotmatics).

SW480 colon cancer cells = test: Cell viability assay (CellTiter-Blue) in SW480 colon cancer cells; conditions: Homo sapiens; for EC50: 96 h, SW480 cell viability, four days, CellTiter-Blue; for inhibition at 10 µM: SW480, read-out: percent inhibition at 10 μM
Protocol: Representative compounds were screened using the following assay procedure to assess the effect on cell viability as described below.
Approximately 2×10^3 SW480 colon cancer cells were seeded into each well and allowed to incubate in the presence or absence of compound for four days at 37° C./5% CO2. Eight replicates of DMSO-treated cells served as controls and cells treated with compound were performed in duplicate.
After incubation, 20 μL of CellTiter-Blue (Promega) was added to each well allowed to incubate for approximately 3 hours. This reagent was a buffered solution which contains resazurin, metabolically active cells were able to reduce rezarurin (blue) into resorufin (pink) which was highly fluorescent. This measured fluorescence was used as a readout for cell viability.

[2] = tested on: Wnt activity (Sp5-Luc reporter, TCF/LEF binding sites) in SW480 colon carcinoma cells; test: Wnt activity screening assay: Sp5-Luc reporter gene assay in SW480 cells; conditions: Homo sapiens; for EC50: Sp5-Luc reporter, SW480 cells, overnight incubation; for inhibition at 10 µM: SW480, read-out: percent inhibition at 10 μM
Text: The screening assay for Wnt activity is described as follows. Reporter cell lines can be generated by stably transducing cancer cell lines (e.g., colon cancer) or primary cells (e.g., IEC-6 intestinal cells) with a lentiviral construct that includes a Wnt-responsive promoter driving expression of the firefly luciferase gene.
SW480 colon carcinoma cells were transduced with a lentiviral vector expressing luciferase with a human Sp5 promoter consisting of a sequence of eight TCF/LEF binding sites. SW480 cells stably expressing the Sp5-Luc reporter gene and a hygromycin resistance gene were selected by treatment with 150 μg/mL of hygromycin for 7 days. These stably transduced SW480 cells were expanded in cell culture and used for all further screening activities. […] For Sp5-Luc reporter gene assays, the cells were plated at 4,000 cells/well in 384-well plates with medium containing 1% fetal bovine serum and incubated overnight at 37° C. and 5% CO2. Following incubation, 20 μl of BrightGlo luminescence reagent (Promega) was added to each well of the 384-well assay plates. The plates were placed on an orbital shaker for 2 min and then luminescence was quantified using the Envision (Perkin Elmer) plate reader. Readings were normalized to DMSO only treated cells, and normalized activities were utilized for EC50 calculations using the dose-response log (inhibitor) vs. response variable slope (four parameters) nonlinear regression feature available in GraphPad Prism 5.0 (or Dotmatics).

- EC50 (IL-6 in THP-1 cells): > 10000 nM
- EC50 (SW480 colon cancer cells): 738 nM
- EC50 [2]: > 10000 nM
Structure (SMILES): Fc1cccc(-c2nccc3[nH]c(-c4n[nH]c5ncc(-c6ccncc6)cc45)cc23)c1 [Compound 18, 3-(4-(3-Fluorophenyl)-1H-pyrrolo[3,2-c]pyridin-2-yl)-5-(pyridin-4-yl)-1H-pyrazolo[3,4-b]pyridine]
- EC50 [1]: 542 nM
- inhibition at 10 µM (IL-6 in THP-1 cells): 0%
- inhibition at 10 µM [2]: 22.6%

- EC50 (IL-6 in THP-1 cells): 3460 nM
- EC50 (SW480 colon cancer cells): 519 nM
- EC50 [2]: 1290 nM
Structure (SMILES): Fc1cccc(-c2nccc3[nH]c(-c4n[nH]c5ncc(-c6ccccn6)cc45)cc23)c1 [Compound 28, 3-(4-(3-Fluorophenyl)-1H-pyrrolo[3,2-c]pyridin-2-yl)-5-(pyridin-2-yl)-1H-pyrazolo[3,4-b]pyridine]
- EC50 [1]: 752 nM

- EC50 (IL-6 in THP-1 cells): > 10000 nM
- EC50 (SW480 colon cancer cells): 1500 nM
- EC50 [2]: > 10000 nM
Structure (SMILES): Cc1ccncc1-c1cnc2[nH]nc(-c3cc4c(-c5ccc(F)cc5)nccc4[nH]3)c2c1 [Compound 33, 3-(4-(4-Fluorophenyl)-1H-pyrrolo[3,2-c]pyridin-2-yl)-5-(4-methylpyridin-3-yl)-1H-pyrazolo[3,4-b]pyridine]
- EC50 [1]: 553 nM
- inhibition at 10 µM (IL-6 in THP-1 cells): 16.4%
- inhibition at 10 µM [2]: 46.5%

- EC50 (IL-6 in THP-1 cells): > 10000 nM
- EC50 (SW480 colon cancer cells): > 10000 nM
- EC50 [2]: > 10000 nM
Structure (SMILES): c1cc(-c2cnc3[nH]nc(-c4cc5c(N6CCCCC6)nccc5[nH]4)c3c2)ccn1 [Compound 186, 3-(4-(Piperidin-1-yl)-1H-pyrrolo[3,2-c]pyridin-2-yl)-5-(pyridin-4-yl)-1H-pyrazolo[3,4-b]pyridine]
- EC50 [1]: > 10000 nM
- inhibition at 10 µM [1]: 0%
- inhibition at 10 µM (IL-6 in THP-1 cells): 25.4%
- inhibition at 10 µM (SW480 colon cancer cells): 11.1%
- inhibition at 10 µM [2]: 30.8%

- EC50 (IL-6 in THP-1 cells): 3690 nM
- EC50 (SW480 colon cancer cells): 1140 nM
- EC50 [2]: 3130 nM
Structure (SMILES): c1ccc(-c2cnc3[nH]nc(-c4cc5cnccc5[nH]4)c3c2)nc1 [Compound 280, 5-(Pyridin-2-yl)-3-(1H-pyrrolo[3,2-c]pyridin-2-yl)-1H-pyrazolo[3,4-b]pyridine]
- EC50 [1]: 3870 nM

- EC50 (IL-6 in THP-1 cells): 5110 nM
- EC50 (SW480 colon cancer cells): 1080 nM
- EC50 [2]: 1650 nM
Structure (SMILES): Cc1ccncc1-c1cnc2[nH]nc(-c3cc4c(-c5cccs5)nccc4[nH]3)c2c1 [Compound 341, 5-(4-Methylpyridin-3-yl)-3-(4-(thiophen-2-yl)-1H-pyrrolo[3,2-c]pyridin-2-yl)-1H-pyrazolo[3,4-b]pyridine]
- EC50 [1]: 330 nM

Continued, compound first:

Structure (SMILES): Fc1cccc(-c2nccc3[nH]c(-c4n[nH]c5ncc(-c6cncc(CN7CCCCC7)c6)cc45)cc23)c1 [Compound 15, 3-(4-(3-Fluorophenyl)-1H-pyrrolo[3,2-c]pyridin-2-yl)-5-(5-(piperidin-1-ylmethyl)pyridin-3-yl)-1H-pyrazolo[3,4-b]pyridine]
- EC50 [1]: 660 nM
- EC50 (IL-6 in THP-1 cells): 4780 nM
- EC50 (SW480 colon cancer cells): 856 nM
- EC50 [2]: 1820 nM

Structure (SMILES): CC(C)(C)CC(=O)Nc1cncc(-c2cnc3[nH]nc(-c4cc5c(-c6ccc(F)cc6)nccc5[nH]4)c3c2)c1 [Compound 44, N-(5-(3-(4-(4-Fluorophenyl)-1H-pyrrolo[3,2-c]pyridin-2-yl)-1H-pyrazolo[3,4-b]pyridin-5-yl)pyridin-3-yl)-3,3-dimethylbutanamide]
- EC50 [1]: 315 nM
- EC50 (IL-6 in THP-1 cells): 2040 nM
- EC50 (SW480 colon cancer cells): 700 nM
- EC50 [2]: 986 nM

Structure (SMILES): CN(C)c1cncc(-c2cnc3[nH]nc(-c4cc5c(-c6cccnc6)nccc5[nH]4)c3c2)c1 [Compound 91, N,N-Dimethyl-5-(3-(4-(pyridin-3-yl)-1H-pyrrolo[3,2-c]pyridin-2-yl)-1H-pyrazolo[3,4-b]pyridin-5-yl)pyridin-3-amine]
- EC50 [1]: 6980 nM
- EC50 (IL-6 in THP-1 cells): > 10000 nM
- inhibition at 10 µM (IL-6 in THP-1 cells): 32.3%
- EC50 (SW480 colon cancer cells): > 10000 nM
- inhibition at 10 µM (SW480 colon cancer cells): 3%
- inhibition at 10 µM [2]: 41.6%
- EC50 [2]: > 10000 nM

Structure (SMILES): FC1(F)CCN(Cc2cncc(-c3cnc4[nH]nc(-c5cc6c(-c7ccncc7)nccc6[nH]5)c4c3)c2)C1 [Compound 138, 5-(5-((3,3-Difluoropyrrolidin-1-yl)methyl)pyridin-3-yl)-3-(4-(pyridin-4-yl)-1H-pyrrolo[3,2-c]pyridin-2-yl)-1H-pyrazolo[3,4-b]pyridine]
- EC50 [1]: 2220 nM
- EC50 (IL-6 in THP-1 cells): 3630 nM
- EC50 (SW480 colon cancer cells): > 10000 nM
- inhibition at 10 µM (SW480 colon cancer cells): 14.3%
- EC50 [2]: 1150 nM

Structure (SMILES): CC(C)(C)C(=O)Nc1cncc(-c2cnc3[nH]nc(-c4cc5c(N6CCCCC6)nccc5[nH]4)c3c2)c1 [Compound 176, N-(5-(3-(4-(Piperidin-1-yl)-1H-pyrrolo[3,2-c]pyridin-2-yl)-1H-pyrazolo[3,4-b]pyridin-5-yl)pyridin-3-yl)pivalamide]
- EC50 [1]: > 10000 nM
- inhibition at 10 µM [1]: 28.2%
- EC50 (IL-6 in THP-1 cells): > 10000 nM
- inhibition at 10 µM (IL-6 in THP-1 cells): 25.9%
- EC50 (SW480 colon cancer cells): > 10000 nM
- inhibition at 10 µM (SW480 colon cancer cells): 5.2%
- inhibition at 10 µM [2]: 18.2%
- EC50 [2]: > 10000 nM

Structure (SMILES): CN(C)Cc1cncc(-c2cnc3[nH]nc(-c4cc5c(N6CCCCC6)nccc5[nH]4)c3c2)c1 [Compound 181, N,N-Dimethyl-1-(5-(3-(4-(piperidin-1-yl)-1H-pyrrolo[3,2-c]pyridin-2-yl)-1H-pyrazolo[3,4-b]pyridin-5-yl)pyridin-3-yl)methanamine]
- EC50 [1]: 9720 nM
- EC50 (IL-6 in THP-1 cells): > 10000 nM
- inhibition at 10 µM (IL-6 in THP-1 cells): 41.5%
- EC50 (SW480 colon cancer cells): 7760 nM
- inhibition at 10 µM [2]: 20.3%
- EC50 [2]: > 10000 nM

Structure (SMILES): CN1CCN(c2nccc3[nH]c(-c4n[nH]c5ncc(-c6cncc(CN7CCC(F)(F)C7)c6)cc45)cc23)CC1 [Compound 250, 5-(5-((3,3-Difluoropyrrolidin-1-yl)methyl)pyridin-3-yl)-3-(4-(4-methylpiperazin-1-yl)-1H-pyrrolo[3,2-c]pyridin-2-yl)-1H-pyrazolo[3,4-b]pyridine]
- EC50 [1]: 4940 nM
- EC50 (IL-6 in THP-1 cells): 400 nM
- EC50 (SW480 colon cancer cells): 3150 nM
- EC50 [2]: 3650 nM

Structure (SMILES): CN1CCN(c2nccc3[nH]c(-c4n[nH]c5ncc(-c6cncnc6)cc45)cc23)CC1 [Compound 251, 3-(4-(4-Methylpiperazin-1-yl)-1H-pyrrolo[3,2-c]pyridin-2-yl)-5-(pyrimidin-5-yl)-1H-pyrazolo[3,4-b]pyridine]
- EC50 [1]: > 10000 nM
- inhibition at 10 µM [1]: 24.7%
- EC50 (IL-6 in THP-1 cells): > 10000 nM
- inhibition at 10 µM (IL-6 in THP-1 cells): 35.7%
- EC50 (SW480 colon cancer cells): > 10000 nM
- inhibition at 10 µM (SW480 colon cancer cells): 8.3%
- inhibition at 10 µM [2]: 17.8%
- EC50 [2]: > 10000 nM

Structure (SMILES): c1cc2[nH]c(-c3n[nH]c4ncc(-c5cncc(CN6CCCC6)c5)cc34)cc2c(-c2ccoc2)n1 [Compound 322, 3-(4-(Furan-3-yl)-1H-pyrrolo[3,2-c]pyridin-2-yl)-5-(5-(pyrrolidin-1-ylmethyl)pyridin-3-yl)-1H-pyrazolo[3,4-b]pyridine]
- EC50 [1]: 2210 nM
- EC50 (IL-6 in THP-1 cells): > 10000 nM
- inhibition at 10 µM (IL-6 in THP-1 cells): 29.4%
- EC50 (SW480 colon cancer cells): 2340 nM
- EC50 [2]: 4050 nM

Structure (SMILES): FC1(F)CCN(Cc2cncc(-c3cnc4[nH]nc(-c5cc6c(-c7ccoc7)nccc6[nH]5)c4c3)c2)C1 [Compound 334, 5-(5-((3,3-Difluoropyrrolidin-1-yl)methyl)pyridin-3-yl)-3-(4-(furan-3-yl)-1H-pyrrolo[3,2-c]pyridin-2-yl)-1H-pyrazolo[3,4-b]pyridine]
- EC50 [1]: 912 nM
- EC50 (IL-6 in THP-1 cells): 102 nM
- EC50 (SW480 colon cancer cells): 369 nM
- EC50 [2]: 199 nM
